Values belong to the molecule of their own block, whether it stands above or below them.
Assays:
[1] = Pre- and post-trial self-reported questionnaire; type: in vivo, human; conditions: 24 participants completing the 2 week course; period of administration
[2] = Curcuminoid levels in 24 h urine collection; type: in vivo, human; conditions: 24 h urine between last two doses
[3] = Curcuminoid levels in colonic mucosa biopsies; type: in vivo, human; conditions: for Mucosal level, mean concentration ± SEM, unwashed, surgical biopsies / Mucosal level, mean concentration ± SEM, washed, surgical biopsies / Mucosal level, mean concentration ± SEM, unwashed, endoscopy biopsies / Mucosal level, mean concentration ± SEM, washed, endoscopy biopsies: patients, oral Curcumin C3 complex 2.35 g once daily 14 days; for Mucosal level, mean concentration ± SEM, unwashed, surgical biopsies / Mucosal level, mean concentration ± SEM, washed, surgical biopsies: n=5; for Mucosal level, mean concentration ± SEM, unwashed, endoscopy biopsies / Mucosal level, mean concentration ± SEM, washed, endoscopy biopsies: n=30
[4] = Curcuminoid levels in plasma; type: in vivo, human; conditions: of 24 participants
[5] = cited from earlier work
[6] = Adverse event monitoring; type: in vivo, human
[7] = tested on: Apc^Min mouse model of inherited colorectal cancer; conditions: dietary curcumin; cited from earlier work
[8] = one participant, right hemi-colectomy, no bowel preparation of biopsied area
[9] = AEs possibly or probably attributable

- Experienced abdominal pain, post-trial responses [1]: 21 % participants
- Experienced bowel incontinence, post-trial responses [1]: 12 % participants
- Experienced constipation, post-trial responses [1]: 13 % participants
- Experienced diarrhoea, post-trial responses [1]: 38 % participants
- Urine level, mean [2]: 27.0 ng/mL
- Urine curcumin level, range ([2]; 12 participants with quantifiable levels): 0.67 to 503.3 ng/mL
- Surface curcumin level, single participant [3, 8]: 551.1 µg/g
- Tissue curcumin level, single participant [3, 8]: 228.3 µg/g
- Mean pre-wash curcumin level, left-sided paired endoscopic biopsies ([3]; oral Curcumin C3 complex 2.35 g daily 14 days, paired left-sided, n=12 pairs): 9.0 µg/g
- Mean pre-wash curcumin level, right-sided paired endoscopic biopsies ([3]; oral Curcumin C3 complex 2.35 g daily 14 days, paired right-sided, n=12 pairs): 35.4 µg/g
- Decrease in tissue curcumin after consecutive washes ([3]; paired right-sided biopsy samples): 74%
- Mucosal level, mean concentration ± SEM, unwashed, surgical biopsies [3]: 75.32 ± 39.71 µg/g
- Mucosal level, mean concentration ± SEM, washed, surgical biopsies [3]: 12.50 ± 3.07 µg/g
- Mucosal level, mean concentration ± SEM, unwashed, endoscopy biopsies [3]: 42.31 ± 23.68 µg/g
- Mucosal level, mean concentration ± SEM, washed, endoscopy biopsies [3]: 19.91 ± 7.87 µg/g
- Persistence of high curcumin levels in mucosa post-administration ([3]; time after last dose at which mucosa was biopsied): up to 40 h
- Quantifiable in plasma (number of participants) [4]: 4
SMILES: COc1cc(/C=C/C(=O)CC(=O)/C=C/c2ccc(O)c(OC)c2)ccc1O [Curcumin, curcumin]
- Lipophilicity [5]: highly lipophilic
- Total gastrointestinal events, number of patients ([6]; 26 patients commenced curcumin): 6
- Abdominal pain, number of events [6, 9]: 3
- Bloating, number of events [6, 9]: 1
- Diarrhoea, number of events [6, 9]: 3
- Dyspepsia, number of events [6, 9]: 1
- Flatulence, number of events [6, 9]: 1
- Nausea, number of events [6, 9]: 2
- Vomiting, number of events [6, 9]: 2
- Total gastrointestinal events, number of events ([6]; AEs possibly or probably attributable, Curcumin C3 complex 2.35 g daily 14 days): 13
- Serious adverse events (SAEs) attributable to curcumin ([6]; Curcumin C3 complex 2.35 g daily 14 days): no serious adverse events
- Abdominal pain, grade ([6]; NCI-CTC v3.0 grade): 1,2
- Bloating, grade ([6]; NCI-CTC v3.0 grade): 2
- Diarrhoea, grade ([6]; NCI-CTC v3.0 grade): 1
- Dyspepsia, grade ([6]; NCI-CTC v3.0 grade): 1
- Flatulence, grade ([6]; NCI-CTC v3.0 grade): 1
- Nausea, grade ([6]; NCI-CTC v3.0 grade): 1,2
- Total gastrointestinal events, grade ([6]; NCI-CTC v3.0 grade): 1 - 2
- Vomiting, grade ([6]; NCI-CTC v3.0 grade): 1,2
- Abdominal pain, number of patients ([6]; in vivo): 3
- Bloating, number of patients ([6]; in vivo): 1
- Diarrhoea, number of patients ([6]; in vivo): 3
- Dyspepsia, number of patients ([6]; in vivo): 1
- Flatulence, number of patients ([6]; in vivo): 1
- Nausea, number of patients ([6]; in vivo): 2
- Vomiting, number of patients ([6]; in vivo): 2
- Reduction of adenoma formation [7]: 39-64%

- Detectable in mucosal samples (number of biopsies) ([3]; of 35 mucosal samples, oral Curcumin C3 complex 2.35 g daily 14 days): 27 out of 35
- Mucosal level, mean concentration ± SEM, unwashed, surgical biopsies [3]: 10.42 ± 6.52 µg/g
- Mucosal level, mean concentration ± SEM, washed, surgical biopsies [3]: 1.27 ± 0.42 µg/g
- Mucosal level, mean concentration ± SEM, unwashed, endoscopy biopsies [3]: 6.33 ± 3.75 µg/g
- Mucosal level, mean concentration ± SEM, washed, endoscopy biopsies [3]: 4.03 ± 1.69 µg/g
SMILES: COc1cc(/C=C/C(=O)CC(=O)/C=C/c2ccc(O)cc2)ccc1O [Desmethoxycurcumin, desmethoxycurcumin]

Reference: publication PMC3566223 (Cancer prevention research (Philadelphia, Pa.), 2012)
